Data on 40 compounds can be found in ChEMBL document CHEMBL1147177, “Identification of tyrosinase inhibitors from Marrubium velutinum and Marrubium cylleneum” (Bioorg Med Chem, 2007).

The target of assay [1] is T1, Tyrosinase (Agaricus bisporus) (UniProt O42713).
T1 sequence (whole entry): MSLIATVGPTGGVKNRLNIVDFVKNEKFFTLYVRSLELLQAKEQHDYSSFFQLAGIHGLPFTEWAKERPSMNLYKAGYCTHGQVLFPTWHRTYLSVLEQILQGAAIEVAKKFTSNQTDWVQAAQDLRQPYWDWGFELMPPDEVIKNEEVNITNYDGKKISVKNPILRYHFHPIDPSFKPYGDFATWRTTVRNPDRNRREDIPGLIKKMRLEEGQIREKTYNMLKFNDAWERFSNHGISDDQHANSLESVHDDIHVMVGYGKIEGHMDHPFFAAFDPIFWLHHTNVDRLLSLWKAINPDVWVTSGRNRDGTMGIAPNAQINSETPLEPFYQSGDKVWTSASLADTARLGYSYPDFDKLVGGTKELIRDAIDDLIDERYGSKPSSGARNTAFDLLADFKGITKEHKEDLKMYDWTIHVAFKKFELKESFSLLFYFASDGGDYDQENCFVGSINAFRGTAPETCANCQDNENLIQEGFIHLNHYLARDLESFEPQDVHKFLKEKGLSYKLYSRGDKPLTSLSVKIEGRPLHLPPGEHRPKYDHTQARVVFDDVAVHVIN
As to the kind of experiment: Inhibition of diphenolase activity of mushroom tyrosinase at 0.042 mM.

For assay [2], the target named is T1, Tyrosinase (Agaricus bisporus). As to the kind of experiment: Inhibition of diphenolase activity of mushroom tyrosinase at 0.055 mM.
The target is the same in assay [3]. Kind of assay: Inhibition of diphenolase activity of mushroom tyrosinase at 0.083 mM.
Assay [4] shares this target. Kind of assay: Inhibition of diphenolase activity of mushroom tyrosinase at 0.051 mM.
Assay [5] shares this target. Kind of assay: Inhibition of diphenolase activity of mushroom tyrosinase at 0.049 mM.
Assay [6] has the same target. Kind of assay: Inhibition of diphenolase activity of mushroom tyrosinase at 0.011 mM.
For assay [7] the target is unchanged. As to the kind of experiment: Inhibition of diphenolase activity of mushroom tyrosinase at 0.056 mM.
Assay [8] shares this target. As to the kind of experiment: Inhibition of diphenolase activity of mushroom tyrosinase at 0.074 mM.
Assay [9] shares this target. Kind of assay: Inhibition of diphenolase activity of mushroom tyrosinase at 0.044 mM.
Assay [10] shares this target. As to the kind of experiment: Inhibition of diphenolase activity of mushroom tyrosinase at 0.070 mM.
The target is the same in assay [11]. As to the kind of experiment: Inhibition of diphenolase activity of mushroom tyrosinase at 0.036 mM.
Assay [12] has the same target. Kind of assay: Inhibition of diphenolase activity of mushroom tyrosinase at 0.064 mM.
For assay [13] the target is unchanged. As to the kind of experiment: Inhibition of diphenolase activity of mushroom tyrosinase at 0.052 mM.
The target is the same in assay [14]. As to the kind of experiment: Inhibition of diphenolase activity of mushroom tyrosinase at 0.035 mM.
The target is the same in assay [15]. As to the kind of experiment: Inhibition of diphenolase activity of mushroom tyrosinase at 0.053 mM.
Assay [16] shares this target. As to the kind of experiment: Inhibition of diphenolase activity of mushroom tyrosinase at 0.231 mM.
Assay [17] shares this target. As to the kind of experiment: Inhibition of diphenolase activity of mushroom tyrosinase at 0.034 mM.
The target is the same in assay [18]. Kind of assay: Inhibition of diphenolase activity of mushroom tyrosinase at 0.050 mM.
The target is the same in assay [19]. Kind of assay: Inhibition of diphenolase activity of mushroom tyrosinase at 0.041 mM.
For assay [20] the target is unchanged. As to the kind of experiment: Inhibition of diphenolase activity of mushroom tyrosinase at 0.093 mM.

The term inhibition denotes the share of the control response that was lost under treatment. For `COc1ccc(CCO[C@@H]2O[C@H](CO)[C@@H](OC(=O)/C=C/c3ccc(O)c(OC)c3)[C@H](O[C@@H]3O[C@@H](C)[C@H](O)[C@@H](O)[C@H]3O[C@@H]3OC[C@@H](O)[C@@H](O)[C@@H]3O)[C@H]2O)cc1O`, the inhibition in [1] stood at 9.48%.

Turning to `C[C@@H]1O[C@@H](OC[C@H]2O[C@@H](Oc3c(-c4ccc(O)c(O)c4)oc4cc(O)cc(O)c4c3=O)[C@H](O)[C@@H](O)[C@@H]2O)[C@H](O)[C@H](O)[C@H]1O`, in [2], the inhibition worked out at 12.7%.

Take `COc1cc(-c2cc(=O)c3c(O)cc(O)cc3o2)ccc1O`: in [3], the inhibition was 16.4%.

Compound `COc1cc(/C=C/C(=O)O[C@H]2[C@H](O[C@@H]3O[C@@H](C)[C@H](O)[C@@H](O)[C@H]3O)[C@@H](O)[C@H](OCCc3ccc(O)c(O)c3)O[C@@H]2CO)ccc1O` gave an inhibition in assay [4] of 21.6%.

Consider `O=C(/C=C/c1ccc(O)c(O)c1)O[C@@H]1C[C@](O)(C(=O)O)C[C@@H](O)[C@H]1O`, for which, in assay [5], the inhibition is 7.78%.

On to `O=C(/C=C/c1ccc(O)cc1)OC[C@H]1O[C@@H](Oc2c(-c3ccc(O)cc3)oc3cc(O)cc(O)c3c2=O)[C@H](O)[C@@H](O)[C@@H]1O`, for which the inhibition in [6] came out at 14.7%; in [7], 30.2%.

Compound `O=c1c(O[C@@H]2O[C@H](CO)[C@@H](O)[C@H](O)[C@H]2O)c(-c2ccc(O)cc2)oc2cc(O)cc(O)c12` had an inhibition in assay [8] of 24.2%.

As for `O=c1cc(-c2ccc(O)c(O)c2)oc2cc(O[C@@H]3O[C@H](CO)[C@@H](O)[C@H](O)[C@H]3O)cc(O)c12`, the inhibition in [8] turned out to be 27.4%.

For the compound `COc1cc(C[C@@H]2CO[C@@H](c3ccc(O[C@H]4O[C@@H](CO)[C@H](O)[C@@H](O)[C@@H]4O)c(OC)c3)[C@@H]2CO)ccc1O[C@H]1O[C@@H](CO)[C@H](O)[C@@H](O)[C@@H]1O`, the inhibition in [5] is 11.1%.

For `C[C@@H]1O[C@@H](O[C@@H]2[C@@H](O)[C@H](OCCc3ccc(O)c(O)c3)O[C@H](CO)[C@H]2OC(=O)/C=C/c2ccc(O)c(O)c2)[C@H](O[C@@H]2OC[C@@H](O)[C@@H](O)[C@@H]2O)[C@H](O)[C@H]1O`, the inhibition in assay [9] worked out at 12%.

`COc1ccc(-c2cc(=O)c3c(OC)c(OC)c(OC)cc3o2)cc1` showed an inhibition in assay [5] of 3.23%.

Compound `COc1cc(-c2oc3cc(O)cc(O)c3c(=O)c2O[C@@H]2O[C@H](CO)[C@@H](O)[C@H](O)[C@H]2O)ccc1O` gave an inhibition in [10] of 24.2%.

Turning to `O=C(O)CC(OC(=O)/C=C/c1ccc(O)c(O)c1)C(=O)O` (stereo unspecified), the inhibition in [7] stood at 4.62%.

In the case of `COc1cc(-c2cc(=O)c3c(O)cc(O[C@@H]4O[C@H](COC(=O)/C=C/c5ccc(O)cc5)[C@@H](O)[C@H](OC(=O)/C=C/c5ccc(O)cc5)[C@H]4O)cc3o2)ccc1O`, in [9], the inhibition is 15.6%.

Compound `COc1cc(/C=C/C(=O)O[C@H]2[C@H](O[C@@H]3O[C@@H](C)[C@H](O)[C@@H](O)[C@H]3O[C@@H]3OC[C@@H](O)[C@@H](O)[C@@H]3O)[C@@H](O)[C@H](OCCc3ccc(O)c(O)c3)O[C@@H]2CO[C@@H]2O[C@H](CO)[C@@H](O)[C@H](O)[C@H]2O)ccc1O` registered an inhibition in assay [11] of 15.5%.

The compound `COc1cc(-c2oc3cc(O)cc(O)c3c(=O)c2O[C@@H]2O[C@H](COC(C)=O)[C@@H](O)[C@H](O)[C@H]2O)ccc1O` came in with an inhibition in [12] of 23.3%.

`COc1ccc(CCO[C@@H]2O[C@H](CO)[C@@H](OC(=O)/C=C/c3ccc(O)c(OC)c3)[C@H](O[C@@H]3O[C@@H](C)[C@H](O)[C@@H](O)[C@H]3O)[C@H]2O)cc1O` came in with an inhibition in [13] of 20.6%.

The compound `COc1cc(/C=C/C(=O)O)ccc1O` had an inhibition in assay [14] of 6.68%.

In assay [15], `COc1ccc(-c2cc(=O)c3c(O)c(O)c(OC)cc3o2)cc1` showed an inhibition of 2.78%.

As to `O=c1c(O)c(-c2ccc(O)c(O)c2)oc2cc(O)cc(O)c12`, the inhibition in assay [4] stood at 49.7%.

In the case of `C[C@H]1O[C@H](O[C@@H]2[C@@H](O)[C@H](OCCc3ccc(O)c(O)c3)O[C@H](CO[C@H]3O[C@@H](CO)[C@H](O)[C@@H](O)[C@@H]3O)[C@H]2OC(=O)/C=C/c2ccc(O)c(O)c2)[C@@H](O)[C@@H](O)[C@@H]1O`, the inhibition in assay [1] turned out to be 17.5%.

With `C[N+]1(C)CCC[C@@H]1C(=O)[O-]`, in assay [16], the inhibition came out at 11.1%.

With `COc1cc(/C=C/C(=O)O[C@H]2[C@H](O[C@@H]3O[C@@H](C)[C@H](O)[C@@H](O)[C@H]3O[C@@H]3OC[C@@H](O)[C@@H](O)[C@@H]3O)[C@@H](O)[C@H](OCCc3ccc(O)c(OC)c3)O[C@@H]2CO)ccc1O`, the inhibition in assay [1] worked out at 17.3%.

For `C[C@@H]1O[C@@H](O[C@@H]2[C@@H](O)[C@H](OCCc3ccc(O)c(O)c3)O[C@H](CO[C@@H]3O[C@H](CO)[C@@H](O)[C@H](O)[C@H]3O)[C@H]2OC(=O)/C=C/c2ccc(O)c(O)c2)[C@H](O[C@@H]2OC[C@@H](O)[C@@H](O)[C@@H]2O)[C@H](O)[C@H]1O`, the inhibition in assay [11] stood at 12.4%.

In assay [15], `COc1cc(-c2oc3cc(O)cc(O)c3c(=O)c2O[C@@H]2O[C@H](CO[C@@H]3O[C@@H](C)[C@H](O)[C@@H](O)[C@H]3O)[C@@H](O)[C@H](O)[C@H]2O)ccc1O` returned an inhibition of 13.1%.

In assay [15], `COc1cc(-c2oc3cc(O)cc(O)c3c(=O)c2O[C@@H]2O[C@H](COC(=O)/C=C/c3ccc(O)cc3)[C@@H](O)[C@H](O)[C@H]2O)ccc1O` showed an inhibition of 21.1%.

For `COc1cc([C@@H]2OC[C@@H](Cc3ccc(O[C@H]4O[C@@H](CO)[C@H](O)[C@@H](O)[C@@H]4O)c(OC)c3)[C@H]2CO)ccc1O`, the inhibition in [12] stood at 12.3%.

Compound `COc1ccc(CCO[C@@H]2O[C@H](CO[C@@H]3O[C@H](CO)[C@@H](O)[C@H](O)[C@H]3O)[C@@H](OC(=O)/C=C/c3ccc(O)c(OC)c3)[C@H](O[C@@H]3O[C@@H](C)[C@H](O)[C@@H](O)[C@H]3O[C@@H]3OC[C@@H](O)[C@@H](O)[C@@H]3O)[C@H]2O)cc1O` showed an inhibition in [14] of 13.2%.

Turning to `COc1cc(C[C@@H]2CO[C@@H](c3ccc(O[C@H]4O[C@@H](CO)[C@H](O)[C@@H](O)[C@@H]4O)c(OC)c3)[C@@H]2CO)ccc1O`, in [12], the inhibition amounted to 17.7%.

With `C[C@@H]1O[C@@H](O[C@@H]2[C@@H](O)[C@H](OCCc3ccc(O)c(O)c3)O[C@H](CO)[C@H]2OC(=O)/C=C/c2ccc(O)c(O)c2)[C@H](O)[C@H](O)[C@H]1O`, in assay [15], the inhibition was found to be 25.8%.

`C[C@H]1O[C@H](O[C@@H]2[C@@H](O)[C@H](O)O[C@H](CO)[C@H]2OC(=O)/C=C/c2ccc(O)c(O)c2)[C@@H](O)[C@@H](O)[C@@H]1O` returned an inhibition in [17] of 10.9%.

In assay [2], `O=C(/C=C/c1ccc(O)cc1)OC[C@H]1O[C@@H](Oc2c(-c3ccc(O)c(O)c3)oc3cc(O)cc(O)c3c2=O)[C@H](O)[C@@H](O)[C@@H]1O` had an inhibition of 21.9%.

On to `C[C@H]1O[C@H](OC[C@H]2O[C@@H](Oc3c(-c4ccc(O)cc4)oc4cc(O)c(O)c(O)c4c3=O)[C@H](O)[C@@H](O)[C@@H]2O)[C@@H](O)[C@@H](O)[C@@H]1O`, for which the inhibition in [2] came out at 27.1%.

In assay [2], `O=c1cc(-c2ccc(O)cc2)oc2c(O)c(O)c(O)c(O)c12` returned an inhibition of 5.21%.

`COc1ccc(-c2cc(=O)c3c(OC)c(O)c(OC)cc3o2)cc1`: in [18], the inhibition amounted to 4.24%.

In assay [19], `COc1ccc(CCO[C@@H]2O[C@H](CO[C@H]3O[C@@H](CO)[C@H](O)[C@@H](O)[C@@H]3O)[C@@H](OC(=O)/C=C/c3ccc(O)c(OC)c3)[C@H](O[C@H]3O[C@H](C)[C@@H](O)[C@H](O)[C@@H]3O)[C@H]2O)cc1O` returned an inhibition of 22.6%.

For the compound `O=C(O)/C=C/c1ccc(O)cc1`, the inhibition in assay [19] came out at 8.87%.

As for `COc1cc(/C=C/C(=O)O[C@H]2[C@H](O[C@H]3O[C@H](C)[C@@H](O)[C@H](O)[C@@H]3O)[C@@H](O)[C@H](OCCc3ccc(O)c(OC)c3)O[C@@H]2CO[C@H]2OCC(O)(CO)[C@@H]2O)ccc1O` (stereo partly specified), the inhibition in assay [1] was 12.7%.

For `C[C@@H]1O[C@@H](OC[C@H]2O[C@@H](Oc3c(-c4ccc(O)cc4)oc4cc(O)cc(O)c4c3=O)[C@H](O)[C@@H](O)[C@@H]2O)[C@H](O)[C@H](O)[C@H]1O`, the inhibition in assay [7] worked out at 16.1%.

In assay [20], `O=c1cc(-c2ccc(O)cc2)oc2cc(O)cc(O)c12` had an inhibition of 14%.
